US7683079B2, “4-aminopiperidine derivatives” (Hoffmann-La Roche Inc., priority 2004, dated 2010)

Target: T1, human DPP-IV (Homo sapiens, UniProt P27487)
T1 construct: made in house; host or cells: Pichia pastoris
Assay: DPP-IV activity assay (fluorometric/colorimetric), IC50 determination
Type: biochemical
Settings: natural human DPP-IV from human plasma pool or recombinant human DPP-IV; 37° C., pH 7.8; substrate 50 μM (fluorogenic) or 200 μM (colorimetric)
Method: Activity of DPP-IV inhibitors are tested with natural human DPP-IV derived from a human plasma pool or with recombinant human DPP-IV. […] In the calorimetric DPP-IV assay 5 to 10 μl human plasma and in the fluorometric assay 1.0 μl of human plasma in a total assay volume of 100 μl is used as an enzyme source. […] Human DPP-IV is expressed and purified from the culture medium using conventional column chromatography including size exclusion and anion and cation chromatography.
A 20 mM stock solution in 10% DMF/H2O is stored at −20° C. until use.
A 10 mM stock solution in 10% MeOH/H2O is stored at −20° C. until use.
Fluorescence is detected in a Perkin Elmer Luminescence Spectrometer LS 50B at an excitation wavelength of 400 nm and an emission wavelength of 505 nm continuously every 15 seconds for 10 to 30 minutes. Initial rate constants are calculated by best fit linear regression.
Initial rate constants are calculated by best fit linear regression.
DPP-IV activity assays are performed in 96 well plates at 37° C. in a total assay volume of 100 μl. The assay buffer consists of 50 mM Tris/HCl pH 7.8 containing 0.1 mg/ml BSA and 100 mM NaCl. […] Enzyme reactions are started with substrate application followed by immediate mixing.

T1 sequence (P27487 31-766): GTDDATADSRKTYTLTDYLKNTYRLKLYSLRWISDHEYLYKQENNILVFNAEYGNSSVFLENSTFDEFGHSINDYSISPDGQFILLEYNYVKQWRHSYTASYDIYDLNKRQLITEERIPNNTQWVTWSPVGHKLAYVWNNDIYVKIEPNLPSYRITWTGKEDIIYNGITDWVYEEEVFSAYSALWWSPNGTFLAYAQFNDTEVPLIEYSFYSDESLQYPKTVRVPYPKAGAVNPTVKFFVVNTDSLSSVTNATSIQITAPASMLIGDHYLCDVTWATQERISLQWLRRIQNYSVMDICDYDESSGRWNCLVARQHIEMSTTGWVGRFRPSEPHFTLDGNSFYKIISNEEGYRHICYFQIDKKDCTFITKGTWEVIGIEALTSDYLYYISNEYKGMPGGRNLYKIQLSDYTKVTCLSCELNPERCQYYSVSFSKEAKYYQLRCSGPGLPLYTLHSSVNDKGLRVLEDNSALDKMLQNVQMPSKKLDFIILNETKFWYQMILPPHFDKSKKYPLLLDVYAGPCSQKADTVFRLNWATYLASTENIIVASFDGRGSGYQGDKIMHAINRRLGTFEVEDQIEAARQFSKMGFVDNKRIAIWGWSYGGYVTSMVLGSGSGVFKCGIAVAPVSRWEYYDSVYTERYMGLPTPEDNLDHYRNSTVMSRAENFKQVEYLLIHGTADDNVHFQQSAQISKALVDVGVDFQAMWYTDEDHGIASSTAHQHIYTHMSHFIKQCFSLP

Row | IC50 [nM] | Structure (SMILES)
1 | 820 | COc1ccc(N2CC[C@@H](N)[C@@H](C(=O)N3CCSC3)C2)cc1OC (racemic) [Example 40, 3 [(3S,4R) and (3R,4S)-4-Amino-1-(3,4-dimethoxy-phenyl)-piperidine-3-yl]-thiazolidin-3-yl-methanone]
2 | 290 | N[C@@H]1CCN(CCc2ccccn2)C[C@@H]1C(=O)N1CCSC1 [Example 36]

Row | Structure (SMILES) | IC50 [nM]
3 | NC1CCN(CCc2ccccc2)CC1c1cccc(Cl)c1 (stereo not drawn) [Example 23, 3-(3-Chloro-phenyl)-1-phenethyl-piperidine-4-ylamine] | 160
